Read-outs that look alike come from different tables or passages of the source.
Tests used:
[1] = target: T1, human enzyme NAMPT (full length) (Homo sapiens, UniProt P43490); assay: NMN fluorescence biochemical assay (stimulation of NMN synthesis by NAMPT); conditions: for EC50: concentration giving half-maximal activation, read-out: Enzymatic EC50; for Enzymatic Emax: fold change of maximal activation compared to DMSO
T1 construct: human enzyme NAMPT (full length)
Method in brief: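 Full-length human NAMPT (100 nM) was preincubated 15 min at 37 °C with compound in 50 mM Tris-HCl pH 7.5, 10 mM MgCl2, 2 mM DTT, then reacted 1 h at 37 °C with 50 μM NAM, 100 μM PRPP, 4 mM ATP (stated solution concentrations). NMN was derivatised with acetophenone/KOH then formic acid and read at Ex/Em 382/445 nm; EC50 and Emax (fold over DMSO) reported.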

[2] = test system: endogenous NAMPT in U2OS cells; assay: Cellular NAD+ modulation assay (NAD/NADH-Glo, U2OS cells); assay type: cell-based; conditions: Homo sapiens; for maximal fold induction: read-out: Cellular Emax
Method in brief: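 NAD/NADH-Glo luminescence quantified NAD+ after acid treatment (60 °C, 15 min) and neutralization of DTAB lysates. Beforehand, U2OS cells seeded 16 h earlier received compound concentration series for 24 h at 37 °C. Values given as half-maximal activation concentration (EC50) and maximal fold change versus DMSO (Emax).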

[3] = NMN synthesis by purified human NAMPT (100 nM)
[4] = 24 hours incubation with compound
[5] = NMN fluorescence assay, purified human NAMPT 100 nM
[6] = 24 hours incubation, cellular NAD+

T1 sequence (P43490 whole entry): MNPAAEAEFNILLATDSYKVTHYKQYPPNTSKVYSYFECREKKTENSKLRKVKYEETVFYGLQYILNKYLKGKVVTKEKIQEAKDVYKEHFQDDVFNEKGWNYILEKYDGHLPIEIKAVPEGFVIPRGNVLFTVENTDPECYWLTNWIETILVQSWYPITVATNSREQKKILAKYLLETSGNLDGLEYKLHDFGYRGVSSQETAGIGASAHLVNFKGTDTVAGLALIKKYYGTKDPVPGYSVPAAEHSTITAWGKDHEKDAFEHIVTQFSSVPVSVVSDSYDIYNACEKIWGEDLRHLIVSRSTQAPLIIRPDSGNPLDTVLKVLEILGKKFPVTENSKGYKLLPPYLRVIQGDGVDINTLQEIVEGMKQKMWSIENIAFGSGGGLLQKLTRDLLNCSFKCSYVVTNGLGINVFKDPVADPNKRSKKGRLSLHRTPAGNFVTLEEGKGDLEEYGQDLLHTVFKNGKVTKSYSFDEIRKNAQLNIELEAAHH

EC50 [1, 3] [µM]	Enzymatic Emax [1]	EC50 [2, 4] [µM]	EC50 [1, 5] [µM]	EC50 [2, 6] [µM]	SMILES	maximal fold induction [2, 4]	maximal fold induction [2, 6]
< 0.5	B (3≥B>2)	0.5 to 5	–	–	O=C1c2ccc(C3CC3)cc2C(Cc2ccccc2)N1Cc1ccc2[nH]c(=O)oc2c1 (stereo not shown) [Compound 116, 6-((3-benzyl-5-cyclopropyl-1-oxoisoindolin-2-yl)methyl)benzo[d]oxazol-2(3H)-one]	> 1.5	–
–	B (3≥B>2)	–	≥ 5	0.5 to 5	Cn1ncc(Cl)c1CC1c2ccccc2C(=O)N1Cc1ccc(O)nc1 (stereo not shown) [Compound 578, 3-[(4-chloro-2-methyl-pyrazol-3-yl)methyl]-2-[(6-hydroxy-3-pyridyl)methyl]isoindolin-1-one]	–	1.2 to 1.5
–	A (A>3)	–	0.5 to 5	< 0.5	Cn1nc(F)c(Cl)c1CC1c2ccccc2C(=O)N1CC1CC2(CNC(=O)O2)C1 (stereo not shown) [Compound 547, 2-((1-((4-chloro-3-fluoro-1-methyl-1H-pyrazol-5-yl)methyl)-3-oxoisoindolin-2-yl)methyl)-5-oxa-7-azaspiro[3.4]octan-6-one]	–	> 1.5
0.5 to 5	B (3≥B>2)	< 0.5	–	–	Cn1ncc(Cl)c1CC1c2ccccc2C(=O)N1CC1CC2(CNC(=O)O2)C1 (stereo not shown) [Compound 307, 2-((1-((4-chloro-1-methyl-1H-pyrazol-5-yl)methyl)-3-oxoisoindolin-2-yl)methyl)-5-oxa-7-azaspiro[3.4]octan-6-one]	> 1.5	–
–	B (3≥B>2)	–	< 0.5	0.5 to 5	Cn1ncc(Cl)c1CC1c2cc(CC3COC3)ccc2C(=O)N1Cc1ccc2[nH]nnc2c1 (stereo not shown) [Compound 394, 2-((1H-benzo[d][1,2,3]triazol-5-yl)methyl)-3-((4-chloro-1-methyl-1H-pyrazol-5-yl)methyl)-5-(oxetan-3-ylmethyl)isoindolin-1-one]	–	> 1.5
≥ 5	B (3≥B>2)	0.5 to 5	–	–	O=C1c2ccccc2C(Cc2ccncc2)N1Cc1ccc2[nH]c(=O)oc2c1 (stereo not shown) [Compound 130, 6-((1-oxo-3-(pyridin-4-ylmethyl)isoindolin-2-yl)methyl)benzo[d]oxazol-2(3H)-one]	> 1.5	–
–	B (3≥B>2)	–	< 0.5	< 0.5	CC(C)(O)Cn1cc(Cl)c(CC2c3ccccc3C(=O)N2Cc2ccc3[nH]nnc3c2)n1 (stereo not shown) [Compound 411, 2-((1H-benzo[d][1,2,3]triazol-5-yl)methyl)-3-((4-chloro-1-(2-hydroxy-2-methylpropyl)-1H-pyrazol-3-yl)methyl)isoindolin-1-one]	–	> 1.5
< 0.5	B (3≥B>2)	< 0.5	–	–	Cn1ncc(Cl)c1C[C@H]1c2ccccc2C(=O)N1C/C=C/c1c[nH]nn1 [Compound 312, (S,E)-2-(3-(1H-1,2,3-triazol-4-yl)allyl)-3-((4-chloro-1-methyl-1H-pyrazol-5-yl)methyl) isoindolin-1-one]	> 1.5	–
–	C (2≥C)	–	≥ 5	0.5 to 5	Cn1ncc(Cl)c1CC1c2cc(Cl)ncc2C(=O)N1CC1CC2(CNC(=O)O2)C1 (stereo not shown) [Compound 524, 2-((6-chloro-1-((4-chloro-1-methyl-1H-pyrazol-5-yl)methyl)-3-oxo-1,3-dihydro-2H-pyrrolo[3,4-c]pyridin-2-yl)methyl)-5-oxa-7-azaspiro[3.4]octan-6-one]	–	> 1.5
≥ 5	A (A>3)	0.5 to 5	–	–	CC1c2cc(CN3CCOCC3)ccc2C(=O)N1Cc1ccc2[nH]c(=O)oc2c1 (stereo not shown) [Compound 143, 6-((3-methyl-5-(morpholinomethyl)-1-oxoisoindolin-2-yl)methyl)benzo[d]oxazol-2(3H)-one]	> 1.5	–
–	B (3≥B>2)	–	≥ 5	0.5 to 5	COc1ccc(CN2C(=O)c3ccccc3C2Cc2c(C)ccnc2C#N)cn1 (stereo not shown) [Compound 588, 3-((2-((6-methoxypyridin-3-yl)methyl)-3-oxoisoindolin-1-yl)methyl)-4-methylpicolinonitrile]	–	> 1.5
–	B (3≥B>2)	–	≥ 5	< 0.5	Cn1ncc(Cl)c1CC1c2ccccc2C(=O)N1Cc1cnc(N)s1 (stereo not shown) [Compound 628, 2-((2-aminothiazol-5-yl)methyl)-3-((4-chloro-1-methyl-1H-pyrazol-5-yl)methyl)isoindolin-1-one]	–	1.2 to 1.5
–	B (3≥B>2)	–	< 0.5	< 0.5	Cc1ccnc(C#N)c1CC1c2ccccc2C(=O)N1C/C=C/c1c[nH]nn1 (stereo not shown) [Compound 409, (E)-3-((2-(3-(1H-1,2,3-triazol-4-yl)allyl)-3-oxoisoindolin-1-yl)methyl)-4-methylpicolinonitrile]	–	> 1.5
≥ 5	B (3≥B>2)	5 to 50	–	–	Cn1c2ccccc2c(=O)n1Cc1ccc2[nH]c(=O)oc2c1 [Compound 46, 6-((1-methyl-3-oxo-1,3-dihydro-2H-indazol-2-yl)methyl)benzo[d]oxazol-2(3H)-one]	> 1.5	–
≥ 5	B (3≥B>2)	5 to 50	–	–	CC1c2ccccc2C(=O)N1Cc1ccc2[nH]nnc2c1 (stereo not shown) [Compound 44, 2-((1H-benzo[d][1,2,3]triazol-5-yl)methyl)-3-methylisoindolin-1-one]	1.2 to 1.5	–
–	A (A>3)	–	< 0.5	< 0.5	Cn1ncc(Cl)c1CC1c2cc(C3CC3)ccc2C(=O)N1Cc1ccc2[nH]nnc2c1 (stereo not shown) [Compound 350, 2-((1H-benzo[d][1,2,3]triazol-5-yl)methyl)-3-((4-chloro-1-methyl-1H-pyrazol-5-yl)methyl)-5-cyclopropylisoindolin-1-one]	–	> 1.5
–	A (A>3)	–	< 0.5	< 0.5	Cc1nn(C)c(CC2c3ccccc3C(=O)N2Cc2ccc3[nH]nnc3c2)c1Cl (stereo not shown) [Compound 337, 2-((1H-benzo[d][1,2,3]triazol-5-yl)methyl)-3-((4-chloro-1,3-dimethyl-1H-pyrazol-5-yl)methyl)isoindolin-1-one]	–	> 1.5
< 0.5	B (3≥B>2)	< 0.5	–	–	N#Cc1nccc(Cl)c1CC1c2ccccc2C(=O)N1Cc1ccc2[nH]nnc2c1 (stereo not shown) [Compound 228, 3-((2-((1H-benzo[d][1,2,3]triazol-5-yl)methyl)-3-oxoisoindolin-1-yl)methyl)-4-chloropicolinonitrile]	> 1.5	–
–	B (3≥B>2)	–	< 0.5	< 0.5	O=C1c2ccccc2C(Cc2ncccc2Br)N1C/C=C/c1cn[nH]c1 (stereo not shown) [Compound 423, (E)-2-(3-(1H-pyrazol-4-yl)allyl)-3-((3-bromopyridin-2-yl)methyl)isoindolin-1-one]	–	> 1.5
–	C (2≥C)	–	0.5 to 5	5 to 50	Cn1ncc(Cl)c1C[C@@H]1c2ccccc2C(=O)N1C[C@H]1C[C@]2(CNC(=O)O2)C1 [Compound 405, (2s,4S)-2-(((R)-1-((4-chloro-1-methyl-1H-pyrazol-5-yl)methyl)-3-oxoisoindolin-2-yl)methyl)-5-oxa-7-azaspiro[3.4]octan-6-one]	–	1.2 to 1.5
0.5 to 5	B (3≥B>2)	0.5 to 5	–	–	N#Cc1ccccc1CC1c2ccccc2C(=O)N1Cc1cc(F)c(O)c(F)c1 (stereo not shown) [Compound 197, 2-((2-(3,5-difluoro-4-hydroxybenzyl)-3-oxoisoindolin-1-yl)methyl)benzonitrile]	> 1.5	–
–	B (3≥B>2)	–	0.5 to 5	0.5 to 5	Cc1ccc(=O)n(C)c1CC1c2ccccc2C(=O)N1CC1CC2(CNC(=O)O2)C1 (stereo not shown) [Compound 493, 2-((1-((1,3-dimethyl-6-oxo-1,6-dihydropyridin-2-yl)methyl)-3-oxoisoindolin-2-yl)methyl)-5-oxa-7-azaspiro[3.4]octan-6-one]	–	> 1.5
–	A (A>3)	–	0.5 to 5	0.5 to 5	Cn1ncc(Cl)c1CC1c2c(Cl)cccc2C(=O)N1Cc1ccc2[nH]nnc2c1 (stereo not shown) [Compound 339, 2-((1H-benzo[d][1,2,3]triazol-5-yl)methyl)-4-chloro-3-((4-chloro-1-methyl-1H-pyrazol-5-yl)methyl)isoindolin-1-one]	–	> 1.5
< 0.5	B (3≥B>2)	< 0.5	–	–	O=C1c2ccccc2C(Cc2ncccc2Br)N1Cc1ccc2[nH]ncc2c1 (stereo not shown) [Compound 240, 2-((1H-indazol-5-yl)methyl)-3-((3-bromopyridin-2-yl)methyl)isoindolin-1-one]	1.2 to 1.5	–
< 0.5	C (2≥C)	5 to 50	–	–	NC(=O)Nc1ccc(CN2Cc3ccccc3C2=O)cc1 [Compound 293, 1-(4-((1-oxoisoindolin-2-yl)methyl)phenyl)urea]	> 1.5	–
